# Data published in patent US10231939B2, “Hydroxytyrosol and oleuropein compositions for induction of DNA damage, cell death and LSD1 inhibition” (priority 2012, dated 2019).
# Test system: PBMC
# Test: Total Antioxidant Capacity Assay, PBMC
# Assay type: cell-based, human
# Details: 50 μM hydroxytyrosol, 200 μM Oleuropein or Formulation 2 (dilution factor=4), 24 hours
# Procedure: Human peripheral blood mononuclear cells were seeded at 1×10^6 cells per well in 12 well culture plates (Nalge Nunc) with Formulation 2 (dilution factor=4) (Table 9), 50 μM hydroxytyrosol or 200 μM Oleuropein for 24 hours; 37° C., 5% (v/v) CO2. In separate experiments, cells were treated with 30 mM glucose for 72 hours prior to 24 hours incubation in fresh media and then a 24 hour incubation with the hydroxytyrosol-containing formulation 2 (dilution factor=4); 37° C., 5% (v/v) CO2. Experiments to determine the protection of cells following doxorubicin treatment involved pre-treatment with Formulation 2 (dilution factor=4) for 24 hours prior to 1 hour incubation with 1 μM doxorubicin. Cells were washed and incubated for a further 24 hours in fresh media; 37° C., 5% (v/v) CO2. Cells were harvested for their total protein by centrifugation at 1000×g for 10 minutes at 4° C. to pellet cell suspensions. […] Cell lysates were analyzed for their total antioxidant capacity. […] The sum of endogenous and food-derived antioxidants in the sample represented the total antioxidant activity of the cells and was measured by their ability to inhibit the oxidation of ABTS (2,2′-Azino-di-[3-ethylbenzthiazoline sulphonate]) in the presence of metmyoglobin using the Perkin Elmer Multi-plate reader (λem=750 nm). […]
compound,measurement,setting,value
"OCCc1ccc(O)c(O)c1 [HT, 4-(2-hydroxyethyl)-1,2-benzenediol]",total antioxidant capacity,listed as Hydroxytyrosol,significantly increased the total antioxidant
same,total antioxidant capacity,listed as hydroxytyrosol,enhance the antioxidant capacity
